Key:
[1] = tested on: subjects with mild-to-moderate Alzheimer's disease; test: Phase 2a Clinical Study A: ADAS-cog (13-item) total score; format: in vivo, human
Protocol: (§1) A Phase 2a proof-of-concept (POC) study in subjects with mild-to-moderate dementia of Alzheimer type was conducted. The study was a randomized, double-blind, placebo- and active-controlled, multicenter study designed to evaluate the efficacy and safety of Compound A (ABT-126) in subjects diagnosed with mild-to-moderate Alzheimer's disease, defined as meeting National Institute of Neurological and Communicative Disorders and Stroke/Alzheimer's Disease and Related Disorders Association (NINCDS/ADRDA) criteria for probable AD. […] Subjects were randomized in an equal ratio to one of four treatment groups (placebo, 5 mg Compound A, 25 mg Compound A, or donepezil) for a 12-week treatment period. The primary efficacy measure was the Alzheimer's Disease Assessment Scale—cognitive subscale (ADAS-Cog). Subjects were generally in good health and any chronic medical conditions were stable during the time of screening. Subjects were not taking other medication for Alzheimer's disease.
(§2) The study was a Phase 2, randomized, double-blind, placebo- and active-controlled, multicenter study designed to evaluate the dose-response relationship and safety of two doses of Compound A in subjects diagnosed with mild to moderate AD, defined as meeting NINCDS/ADRDA criteria for probable AD.
(§3) The study consisted of a Screening Period of up to 28 days, a 12-week treatment period, and a post-treatment period. The screening period consisted of three visits: Screening Visit 1, Screening Visit 2, and Day −1. Upon completion of Day −1 procedures, eligible subjects were randomized through an Interactive Voice Response/Interactive Web-Based (IVR/IWB) system. Subjects were randomized in an equal ratio to one of four treatment groups (placebo, 5 mg Compound A, 25 mg Compound A, or donepezil).
(§4) Each subject was instructed to take study drug once-daily in the morning for 12 weeks. Subjects randomized to donepezil took 5 mg donepezil QD for the first 4 weeks and began 10 mg donepezil QD at Week 4 through the remainder of the study. The subject and investigator were blinded to the treatment assignment throughout the study.
(§5) The primary efficacy measure was the Alzheimer's Disease Assessment Scale-cognitive subscale (ADAS-cog). The ADAS-cog was designed to assess the cognitive impairments most common in AD. The ADAS-cog is a subscale of the ADAS, which focuses on cognitive functioning and memory. Two versions were used in the study: an 11-item version and an expanded (13-item) version. The 11-item version of the ADAS-cog was the primary endpoint measure in this study. ADAS-Cog (13-item) was administered throughout the study and the primary efficacy variable was considered the change from baseline to final evaluation on the ADAS-cog total score (11-item).
The 13-item ADAS-cog is comprised of the 11-item ADAS-cog with two additional items (Delayed Word Recall and a Number Cancellation Test) that are designed to assess attention and concentration. The Delayed Word Recall Test (range from 0 to 10) was an addition to the Word Recall Test to enhance sensitivity of the instrument in assessing cognition functioning on patients with mild AD. The Number Cancellation Test (range from 0 to 5) was reliable and sensitive to a broad range of dementia severity, and was recommended as a useful addition to the 11-item ADAS-cog. The total score of the 13-item ADAS-cog ranges from 0 to 85, with a higher score representing greater impairment. The ADAS-cog (13-item) was administered by a certified rater at Screening Visit 1, Screening Visit 2, and Day-1, as well as Weeks 4, 8, and 12 during the study.

[2] = tested on: subjects with mild-to-moderate Alzheimer's disease; test: Phase 2a Clinical Study A: ADAS-cog (11-item) total score; format: in vivo, human
Protocol: as §1, §2, §3, §4
Subjects completed 4 visits during the treatment period at Week 2, Week 4, Week 8 and Week 12. Subjects returned to the study site for a follow-up visit approximately 2 weeks after the Week 12 or premature discontinuation visit for a safety evaluation. In addition, study site personnel contacted each subject's caregiver by telephone approximately 30 days after the subject's last dose of study drug to ascertain the subject's safety status.
as §5
The 11-item ADAS-cog includes the following tests: Word Recall, Commands, Constructional Praxis, Naming Objects and Fingers, Ideational Praxis, Orientation, Word Recognition, Remembering Test Instructions, Comprehension of Spoken Language, Spoken Language Ability, and Word Finding Difficulty. The total score of the 11-item ADAS-cog ranges from 0 to 70, with a higher score representing greater impairment.
The primary efficacy variable was the change from baseline to the final observation on the ADAS-cog (11-item) total score. The primary efficacy analysis was carried out using an ANCOVA model with treatment and study site as the main effects and baseline score as the covariate. […]

[3] = donepezil 5 mg QD first 4 weeks then 10 mg QD, ANCOVA, baseline to final evaluation
[4] = donepezil 5 mg QD first 4 weeks then 10 mg QD, Change to Week 8
[5] = donepezil 5 mg QD first 4 weeks then 10 mg QD, Change to Week 12
[6] = donepezil 5 mg QD first 4 weeks then 10 mg QD, MMRM, Week 8
[7] = donepezil 5 mg QD first 4 weeks then 10 mg QD, MMRM, Week 12
[8] = donepezil 5 mg QD first 4 weeks then 10 mg QD, final evaluation, 12-week treatment
[9] = donepezil 5 mg QD, Change to Week 4
[10] = donepezil 5 mg QD, MMRM, Week 4

For `COc1cc2c(cc1OC)C(=O)C(CC1CCN(Cc3ccccc3)CC1)C2` (stereo not shown) [Donepezil, donepezil, reference compound], the “ADAS-cog (13-Item) Total Score Difference From Placebo LS Mean (SE) of Difference” value [1, 3] was −2.49 (1.04), the “ADAS-cog (13-Item) Total Score LS Mean (SE) of Change” value [1, 3] was −3.27 (0.74) and the “ADAS-cog (13-Item) Total Score Observed Mean (SD) change” value [1, 4] was −2.66 (5.48). The “ADAS-cog (13-Item) Total Score Observed Mean (SD) change” value [1, 5] was −4.17 (4.94), the “ADAS-cog (13-Item) Total Score Difference From Placebo LS Mean (SE) of Difference” value [1, 6] was −1.85 (0.98) and the “ADAS-cog (13-Item) Total Score LS Mean (SE) of Change from Baseline” value [1, 6] was −2.20 (0.70). The “ADAS-cog (13-Item) Total Score Difference From Placebo LS Mean (SE) of Difference” value [1, 7] was −2.48 (1.06), the “ADAS-cog (13-Item) Total Score LS Mean (SE) of Change from Baseline” value [1, 7] was −3.61 (0.76) and the “ADAS-cog (13-Item) Total Score Observed Mean (SD) Final” value [1, 8] was 33.90 (13.37). The “ADAS-cog (13-Item) Total Score Observed Mean (SD) change” value [1, 9] was −1.84 (3.94), the “ADAS-cog (13-Item) Total Score Difference From Placebo LS Mean (SE) of Difference” value [1, 10] was −1.53 (0.74) and the “ADAS-cog (13-Item) Total Score LS Mean (SE) of Change from Baseline” value [1, 10] was −1.53 (0.53). For the same compound, the “ADAS-cog (11-Item) Total Score Difference From Placebo LS Mean (SE) of Difference” value [2, 3] was −1.43, the “ADAS-cog (11-Item) Total Score LS Mean (SE) of Change” value [2, 3] was −2.11 (0.65) and the “ADAS-cog (11-Item) Total Score Observed Mean (SD) change” value [2, 4] was −1.69 (4.96). For the same compound, the “ADAS-cog (11-Item) Total Score Observed Mean (SD) change” value [2, 5] was −2.91 (4.76), the “ADAS-cog (11-Item) Total Score Difference From Placebo LS Mean (SE) of Difference” value [2, 6] was −0.70 (0.83) and the “ADAS-cog (11-Item) Total Score LS Mean (SE) of Change from Baseline” value [2, 6] was −1.26 (0.59). For the same compound, the “ADAS-cog (11-Item) Total Score Difference From Placebo LS Mean (SE) of Difference” value [2, 7] was −1.57 (0.91), the “ADAS-cog (11-Item) Total Score LS Mean (SE) of Change from Baseline” value [2, 7] was −2.40 (0.65) and the “ADAS-cog (11-Item) Total Score Observed Mean (SD) Final” value [2, 8] was 23.21 (11.53). The “ADAS-cog (11-Item) Total Score Observed Mean (SD) change” value [2, 9] was −1.04 (3.53), the “ADAS-cog (11-Item) Total Score Difference From Placebo LS Mean (SE) of Difference” value [2, 10] was −0.68 (0.65) and the “ADAS-cog (11-Item) Total Score LS Mean (SE) of Change from Baseline” value [2, 10] was −0.78 (0.47). For the same compound, the “cognition relative to placebo, ADAS-cog (11-item) MMRM (in words)” value ([2]; donepezil treatment group) was “cognitive improvement relative to placebo”.
